Measured values taken from patent US9662322B2 (TEVA PHARMACEUTICAL INDUSTRIES, LTD., priority 2014, dated 2017).

What was measured:
[1] = tested on: subjects with relapsing remitting multiple sclerosis (RRMS); experiment: ALLEGRO Phase III trial: safety and tolerability; format: in vivo, human
Experimental: The following assessments were performed at specified time points: • 1. Vital signs were measured at each study visit. • 2. A physical examination is performed at months −1 (screening), 0 (baseline) 1, 3, 6, 12, 18 and 24 (termination/early discontinuation core study). In case of the 6 months extended study, additional examination was performed at month 30 (termination/early discontinuation of extended study). • 3. The following safety clinical laboratory tests were performed: • a. Complete blood count (CBC) with differential—at all scheduled visits. A reticulocyte count was added to the CBC at months 0 (baseline) and 24/30 (termination/early discontinuation). • b. Serum chemistry (including electrolytes, liver enzymes, direct and total bilirubin and pancreatic amylase and CPK), and urinalysis—at all scheduled visits. • c. A rapid urine β-hCG test was performed in women of child-bearing potential at baseline (month 0) and at each scheduled study visit thereafter (at site). • d. β-hCG in women of child-bearing potential was performed at all scheduled visits. • e. Starting after visit Month 3 a rapid urine β-hCG test was performed in women of child-bearing potential every 28 (±2) days. The subject was contacted by telephone within 72 hours after the test was scheduled to be performed and asked specific questions regarding the test. In case of suspected pregnancy (positive urine β-hCG test result), the caller made sure that the study drug has been discontinued and the subject was instructed to arrive at the site as soon as possible with all study drugs. • 4. Markers of inflammation (serum conventional C-reactive protein and fibrinogen)—at screening, baseline and all scheduled visits thereafter. • 5. During the first 3 months periodical phone calls were placed by the site personnel every two weeks. […] ECG was performed at months −1 (screening; additional recording, up to 30 minutes apart is performed if QTc is […] 450 msec), (baseline; three recordings, 15 minutes apart), 1, 2, 3, 6, 12, 18 and 24 (termination/early discontinuation). In case of the 6 months extended study, ECG is performed at month 30 (termination/early discontinuation of the extended study). • 7. Chest X-ray is performed at months −1 (screening), (if not performed within 7 months prior to the screening visit). • 8. Adverse Events (AEs) are monitored throughout the study. • 9. Concomitant medications are monitored throughout the study. • 10. Neurological evaluations, including Expanded Disability Status Scale (EDSS), 25 foot walk test/Ambulation Index (AI), Functional systems (FS) are performed at months −1 (screening), 0 (baseline) and every 3 months during the study and the extended study period. • 11. MS functional Composite (MSFC) was assessed at months −1 (screening) (three practices for training purposes only), at month 0 (baseline), 6, 12, 18 and 24 (termination/early discontinuation). In case of the 6 months extended study, the last MSFC was performed at months 30 (termination/early discontinuation of the extended study). • 12. Subject-reported fatigue was assessed by the Modified Fatigue Impact Scale (MFIS) at months 0, 6, 12, 18, and 24 (termination/early discontinuation). In case of the 6 months extended study, additional MFIS was performed at month 30 (termination/early discontinuation of the extended study). • 13. The general health status was assessed by the EuroQoL (EQ5D) questionnaire at month 0 (baseline) and month 24 (termination/early discontinuation of the study). In case of the 6 months extended study, the last EuroQoL (EQ5D) was performed at month 30 (termination/early discontinuation of the extended study) instead of month 24. • 14. The general health status was assessed by the Short-Form general health survey (SF-36) subject-reported questionnaire at month 0 (baseline) and every 6 months thereafter, until termination/early discontinuation. • 15. […]

patients with RRMS = experiment: Post hoc analysis of pooled ALLEGRO and BRAVO trials by baseline EDSS subgroup; format: in vivo, human; settings: for Annualized Relapse Rate, Ratio: LAQ 0.6 mg vs PBO
Source text: The observed effect of LAQ on Confirmed Disability Progression (CDP) is disproportionately larger than would be predicted by the observed LAQ effect on relapse rate reduction.
ALELGRO and BRAVO trials described above enrolled ambulatory patients with RRMS, aged 18-55 years, with EDSS scores ≦5.5. Patients included in the study had • 1. ≧1 relapse in the previous year, or • 2. 2 relapses in the previous 2 years, or • 3. 1 relapse in the previous 1-2 years and ≧1 GdE lesion in the previous year.
Patients were randomized 1:1 to LAQ 0.6 mg or PBO in the ALLEGRO study; in BRAVO patients were randomized 1:1:1 LAQ 0.6 or PBO or weekly interferon β 1a 30 μg.
This post hoc analysis include patients randomized to LAQ 0.6 mg or PBO only. Endpoints include ARR, time to CDP (defined as an increase from baseline in EDSS score of ≧1 point if baseline EDSS is ≦5, or of ≧0.5 point if baseline EDSS is >5), sustained for 3 or 6 months; and MSFC components including the Timed 25-Foot Walk (T25FW) test.
LAQ vs. […] Adjusted mean z-score differences and 95% CIs were evaluated by ANCOVA.
MRI endpoints included brain atrophy measured percent brain volume change (PBVC), and cumulative numbers of gadolinium-enhancing (GdE) and new T2 lesions at months 12 and 24.

relapsing MS = settings: cited from earlier work

CCN(C(=O)c1c(O)c2c(Cl)cccc2n(C)c1=O)c1ccccc1 [Laquinimod, laquinimod]
Deaths ([1]; 0.6 mg daily, 24 months): No deaths | ALT elevations ≧5×ULN, patients ([1]; human, in vivo, 24 months): 8 | Abdominal pain, % of patients ([1]; human, in vivo, 24 months): 5.8% | Adverse events, number ([1]; human, in vivo, 24 months): 3309 | Appendicitis ([1]; human, in vivo, 24 months): 5 cases | Back pain, % of patients ([1]; human, in vivo, 24 months): 16.4% | Cough, % of patients ([1]; human, in vivo, 24 months): 7.5% | Neoplasms ([1]; human, in vivo, 24 months): 8 cases | Patients reporting 1 or more adverse events ([1]; human, in vivo, 24 months): 87% | Serious adverse events (SAEs) reported, total ([1]; human, in vivo, 24 months): 122 | Shift to ALT ≧3×ULN and <5×ULN, % of patients ([1]; human, in vivo, 24 months): 4.9% | Study discontinuation associated with these adverse events (abdominal pain, back pain, cough) ([1]; human, in vivo, 24 months): 3% | Treatment discontinuation due to ALT≧3 and <5×ULN, patients ([1]; human, in vivo, 24 months): 7 | Liver failure ([1]; in vivo): no cases of liver failure | T25FW time increase after 24 months (adjusted mean) (patients with RRMS; baseline EDSS >3): 1.9 s | 9HPT Change from Baseline to Month 24, Adj. Mean Diff. (patients with RRMS; baseline EDSS >3.0): −1.590 | Brain Atrophy as defined by PBVC, adjusted mean difference (patients with RRMS; baseline EDSS >3.0): 0.39 | Cumulative GdE T1 Lesions at Months 12 and 24, Rate Ratio (patients with RRMS; baseline EDSS >3.0): 0.83 | Cumulative New/Enlarging T2 Lesions at Months 12 and 24, Rate Ratio (patients with RRMS; baseline EDSS >3.0): 0.75 | Disability as Assessed by MSFC z-Score at Month 24, adjusted mean difference (patients with RRMS; baseline EDSS >3.0): 0.25 | PASAT Change from Baseline to Month 24, Adj. Mean Diff. (patients with RRMS; baseline EDSS >3.0): 0.586 | Time to 3-month CDP, Hazard Ratio (patients with RRMS; baseline EDSS >3.0): 0.60 | Time to 6-month CDP, Hazard Ratio (patients with RRMS; baseline EDSS >3.0): 0.47 | Reduction in 6-month CDP (patients with RRMS; baseline EDSS >3 (worsening MS), vs PBO): 53% | Reduction of 3-month CDP (patients with RRMS; baseline EDSS >3, vs PBO): 40% | Reduction of ARR (patients with RRMS; baseline EDSS >3, vs PBO): 25% | Improvement / treatment effect size on the T25FW component (patients with RRMS; baseline EDSS >3, vs PBO, 24 months): 59% | Annualized Relapse Rate, Ratio (patients with RRMS; baseline EDSS >3.0): 0.75 | T25FW Change from Baseline to Month 24, Adj. Mean Diff. (patients with RRMS; baseline EDSS >3.0, listed as LAQ): -2.79 s | T25FW treatment effect among subjects who experienced CDP (patients with RRMS; baseline EDSS >3 with CDP, vs PBO): 8.6 s | Treatment differences in T25FW (patients with RRMS; baseline EDSS ≦3): No treatment differences | 9HPT Change from Baseline to Month 24, Adj. Mean Diff. (patients with RRMS; baseline EDSS ≦3.0): −1.108 | Brain Atrophy as defined by PBVC, adjusted mean difference (patients with RRMS; baseline EDSS ≦3.0): 0.34 | Cumulative GdE T1 Lesions at Months 12 and 24, Rate Ratio (patients with RRMS; baseline EDSS ≦3.0): 0.66 | Cumulative New/Enlarging T2 Lesions at Months 12 and 24, Rate Ratio (patients with RRMS; baseline EDSS ≦3.0): 0.77 | Disability as Assessed by MSFC z-Score at Month 24, adjusted mean difference (patients with RRMS; baseline EDSS ≦3.0): −0.02 | PASAT Change from Baseline to Month 24, Adj. Mean Diff. (patients with RRMS; baseline EDSS ≦3.0): 0.302 | T25FW Change from Baseline to Month 24, Adj. Mean Diff. (patients with RRMS; baseline EDSS ≦3.0): 0.055 s | Time to 3-month CDP, Hazard Ratio (patients with RRMS; baseline EDSS ≦3.0): 0.69 | Time to 6-month CDP, Hazard Ratio (patients with RRMS; baseline EDSS ≦3.0): 0.60 | Annualized Relapse Rate, Ratio (patients with RRMS; baseline EDSS ≦3.0): 0.80 | Development of active MRI lesions (relapsing MS): reduce development of active MRI lesions
